Converted amounts (≈) assume the structure as drawn. Where two headings read alike, the source gives them in different places. Peptide text beside a SMILES is read from it.
What was measured:
K. pneumoniae E406-17 = experiment: microbe, parasite or virus in culture; assay type: cell-based, Klebsiella pneumoniae; details: for MIC: Table 14, read-out: MIC K. pneumoniae E406-17; for MIC K. pneumonia 406-17: E406-17
Protocol: (§1) The antibacterial activity of peptides was evaluated using a standard broth microdilution protocol with minor modifications as described (Mishra, et al. (2012) J. Am. Chem. Soc., 134:12426-12429). In brief, logarithmic phase bacterial cultures (i.e., optical density at 600 nm≈0.5) were diluted to OD600 0.001 and partitioned into a 96-well polystyrene microplate at 90 μL per well. After treatment with 10 μL of peptide solutions two fold diluted to various concentrations, microplates were incubated at 37° C. overnight and read on a ChroMate® 4300 Microplate Reader at 630 nm (GMI, Ramsey, MN). […] To study the influence of medium conditions on the antimicrobial activity of peptides against S. aureus USA300, up to 200 mM sodium chloride (NaCl), 2 mM of calcium chloride, 5-10% of human serum, mouse plasma, fluid, or supernatants of tissue homogenates were included into the assays.
(§2) The bacterial strains used include the Gram-positive bacteria methicillin-resistant Staphylococcus aureus USA300, Enterococcus faecium V286-17 (VRE), S. aureus M838-17 (MRSA) and Gram-negative bacteria E. coli E423-17, E416-7 (ampC), P. aeruginosa E411-17, PA01, K. pneumoniae E406-17, ATCC13883, and A. baumannii B26-16. Bacteria were cultivated in tryptic soy broth (TSB) from BD Bioscience.
(§3) The antibacterial activity of peptides was evaluated using a standard broth microdilution protocol with minor modifications (Mishra, et al. (2017) Acta Biomater., 49:316-328). In brief, logarithmic phase bacterial cultures (i.e., optical density at 600 nm≈0.5) were diluted to 0.001 OD and aliquoted 90 μL per well into a 96-well polystyrene microplate. Added 10 μL peptides per well with various concentrations, plates were incubated at 37° C., overnight. Post incubation the plates are read at 630 nm using a ChroMate® Microplate Reader (GMI). […] To study the influence of medium conditions on the antimicrobial activity of peptides against S. aureus USA300 at different pHs (6.8, 7.2, and 8.0), 150 mM sodium chloride (NaCl), 5-10% of human serum, mouse plasma, and peritoneal fluid were included into the assays.

A. baumannii B26-16 = experiment: microbe, parasite or virus in culture; assay type: cell-based, Acinetobacter baumannii; details: Table 14, read-out: MIC A. baumannii B26-16
Protocol: as §2, §3

P. aeruginosa E411-17 = experiment: microbe, parasite or virus in culture; assay type: cell-based, Pseudomonas aeruginosa; details: for MIC: Table 14, read-out: MIC P. aeruginosa E411-17; for MIC P. aeruginosa 411-17: E411-17
Excerpt: (§4) The bacterial strains used include the Gram-positive strains Staphylococcus aureus USA300 LAC, S. epidermidis 1457, and Bacillus subtilis 168, as well as the Gram-negative isolates Escherichia coli K12 and Acinetobacter baumannii B2367-12. Additional, drug resistance strains include Gram-positive Enterococcus faecium V286-17 (VRE) and S. aureus M838-17 (MRSA) and Gram-negative E. coli E423-17, E. coli E416-17 (ampC), and P. aeruginosa E411-17. Bacteria were cultivated in tryptic soy broth (TSB) (BD Bioscience, MD).
as §1, §2, §3

E. coli E423-17 = experiment: microbe, parasite or virus in culture; assay type: cell-based, Escherichia coli; details: Table 14, read-out: MIC E. coli E423-17
Excerpt: as §4, §1, §2, §3

S. aureus USA300 = experiment: microbe, parasite or virus in culture; assay type: cell-based, Staphylococcus aureus; details: Table 14, read-out: MIC S. aureus USA300 (MRSA)
How it was run: (§5)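 Broth microdilution: log-phase cultures in tryptic soy broth diluted to OD600 0.001, exposed to two-fold diluted peptides at 37° C overnight, growth read at 630 nm. Medium effects on S. aureus USA300 tested with up to 200 mM NaCl, 2 mM CaCl2, 5-10% human serum, mouse plasma, fluids or tissue homogenate supernatants.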

E. faecium V286-17 (VRE) = experiment: microbe, parasite or virus in culture; assay type: cell-based, Enterococcus faecium; details: Table 14, read-out: MIC E. faecium V286-17 (VRE)
Excerpt: as §4, §1, §2, §3

[1] = test system: Klebsiella pneumoniae clinical strains; experiment: microbe, parasite or virus in culture; details: Klebsiella pneumoniae
Protocol: as §3

S. aureus M838-17 (MRSA) = experiment: microbe, parasite or virus in culture; assay type: cell-based, Staphylococcus aureus; details: M838-17
How it was run: as §5

Hemolytic assay = assay type: cell-based, human; details: human, human red blood cells, 2% (v/v)
How it was run: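 Washed hRBCs (2% v/v) exposed to peptide for 1 h at 37 °C, then centrifuged and hemoglobin in supernatant read at 545 nm. Lysis normalized to Triton X-100 (2% or 1%; 100%) and PBS (0%); HL50 is the peptide concentration giving 50% lysis, and CSI is HL50/MIC.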

## NC[C@H]1O[C@H](O[C@H]2[C@H](O)[C@@H](O[C@H]3O[C@H](CO)[C@@H](O)[C@H](N)[C@H]3O)[C@H](N)C[C@@H]2N)[C@H](N)C[C@@H]1O [Tobramycin, reference compound]
K. pneumoniae E406-17; Klebsiella pneumoniae, E40617
  MIC: > 8 µM
A. baumannii B26-16; Acinetobacter baumannii, B2616
  MIC: 4 µM (≈ 1.87 µg/mL)
P. aeruginosa E411-17; Pseudomonas aeruginosa, E41117
  MIC: 2 µM (≈ 0.935 µg/mL)
E. coli E423-17; Escherichia coli, E42317
  MIC: 8 µM (≈ 3.74 µg/mL)
S. aureus USA300; Staphylococcus aureus, MRSA / USA300
  MIC: 4 µM (≈ 1.87 µg/mL)
E. faecium V286-17 (VRE); Enterococcus faecium, VRE
  MIC: > 8 µM
[1]; strain KP-231-18
  MIC: 64 µM (≈ 29.9 µg/mL)
[1]; strain KP-232-18
  MIC: > 64 µM
[1]; strain KP-245-18
  MIC: 4 to 8 µM (≈ 1.87 to 3.74 µg/mL)
[1]; strain KP-249-18
  MIC: 8 µM (≈ 3.74 µg/mL)
[1]; strain KP-253-18
  MIC: 8 µM (≈ 3.74 µg/mL)
[1]; strain KP-256-18
  MIC: > 64 µM
[1]; strain KP-257-18
  MIC: > 64 µM
[1]; strain KP-262-18
  MIC: 4 µM (≈ 1.87 µg/mL)
[1]; strain KP-270-18
  MIC: 16 µM (≈ 7.48 µg/mL)
[1]; strain KP-B42-15
  MIC: 8 µM (≈ 3.74 µg/mL)
[1]; strain KP-B53-15
  MIC: 4 µM (≈ 1.87 µg/mL)
[1]; strain KP-B73-15
  MIC: 4 µM (≈ 1.87 µg/mL)
[1]; strain KP-B77-15
  MIC: 4 µM (≈ 1.87 µg/mL)
[1]; strain KP-B1725-18
  MIC: 8 µM (≈ 3.74 µg/mL)

## CC(C)C[C@H](NC(=O)[C@H](Cc1c[nH]c2ccccc12)NC(=O)[C@H](Cc1c[nH]c2ccccc12)NC(=O)[C@H](Cc1c[nH]c2ccccc12)NC(=O)[C@H](Cc1c[nH]c2ccccc12)NC(=O)[C@H](CCCNC(=N)N)NC(=O)[C@H](CCCNC(=N)N)NC(=O)[C@@H](N)CCCNC(=N)N)C(N)=O [WW306, RRRWWWWL] (H-RRRWWWWL-NH2; N-terminus and C-terminus assumed)
K. pneumoniae E406-17
  MIC K. pneumonia 406-17: 6.25 µM (≈ 8.4 µg/mL)
P. aeruginosa E411-17
  MIC P. aeruginosa 411-17: 6.25 µM (≈ 8.4 µg/mL)
S. aureus M838-17 (MRSA)
  MIC S. aureus M838-17: 3.1 µM (≈ 4.17 µg/mL)
Hemolytic assay
  HC50 at 1 h: 60 µM

## C[C@H](NC(=O)[C@H](Cc1c[nH]c2ccccc12)NC(=O)[C@H](Cc1c[nH]c2ccccc12)NC(=O)[C@H](Cc1c[nH]c2ccccc12)NC(=O)[C@H](Cc1c[nH]c2ccccc12)NC(=O)[C@H](CCCNC(=N)N)NC(=O)[C@H](CCCNC(=N)N)NC(=O)[C@@H](N)CCCNC(=N)N)C(N)=O [WW308, RRRWWWWA] (H-RRRWWWWA-NH2; N-terminus and C-terminus assumed)
K. pneumoniae E406-17
  MIC K. pneumonia 406-17: >50 µM
P. aeruginosa E411-17
  MIC P. aeruginosa 411-17: 25 µM (≈ 32.5 µg/mL)
S. aureus M838-17 (MRSA)
  MIC S. aureus M838-17: 12.5 µM (≈ 16.3 µg/mL)
Hemolytic assay
  HC50 at 1 h: > 200 µM

## CC(C)C[C@H](NC(=O)[C@H](Cc1c[nH]c2ccccc12)NC(=O)[C@H](Cc1c[nH]c2ccccc12)NC(=O)[C@H](Cc1c[nH]c2ccccc12)NC(=O)[C@H](CCCNC(=N)N)NC(=O)[C@H](CCCNC(=N)N)NC(=O)[C@H](CCCNC(=N)N)NC(=O)[C@@H](N)CCCNC(=N)N)C(N)=O [WW309, RRRRWWWL] (H-RRRRWWWL-NH2; N-terminus and C-terminus assumed)
K. pneumoniae E406-17
  MIC K. pneumonia 406-17: >50 µM
P. aeruginosa E411-17
  MIC P. aeruginosa 411-17: 12.5 µM (≈ 16.4 µg/mL)
S. aureus M838-17 (MRSA)
  MIC S. aureus M838-17: 6.25 µM (≈ 8.21 µg/mL)
Hemolytic assay
  HC50 at 1 h: > 200 µM

## Colistin [reference compound]
K. pneumoniae E406-17
  MIC: >8 µM
A. baumannii B26-16
  MIC: 1 µM
P. aeruginosa E411-17
  MIC: 2 µM
E. coli E423-17
  MIC: 1 µM
S. aureus USA300
  MIC: >8 µM
E. faecium V286-17 (VRE)
  MIC: >8 µM

From patent publication US12173088B2, “Anti-microbial peptides” (priority 2018, dated 2024)
